Measurements: patent publication US20100298221A1, “2-PHENOXY NICOTINE ACID DERIVATIVE AND USE THEREOF” (BAYER SCHERING PHARMA AKTIENGESELLSCHAFT, priority 2006, published 2010)

The molecules below were run against T1, human PPARα-receptor (Homo sapiens, UniProt Q07869) (assay: Cellular transactivation assay (GAL4-PPARα chimera, luciferase reporter, CHO cells)). Details: CHO cells stably expressing GAL4-PPARα chimera and luciferase reporter; stimulation time 6 h.
T1 construct: expressed in transfected cells; host or cells: CHO (chinese hamster ovary) cells, stably transfected
T1 sequence (Q07869 167-468): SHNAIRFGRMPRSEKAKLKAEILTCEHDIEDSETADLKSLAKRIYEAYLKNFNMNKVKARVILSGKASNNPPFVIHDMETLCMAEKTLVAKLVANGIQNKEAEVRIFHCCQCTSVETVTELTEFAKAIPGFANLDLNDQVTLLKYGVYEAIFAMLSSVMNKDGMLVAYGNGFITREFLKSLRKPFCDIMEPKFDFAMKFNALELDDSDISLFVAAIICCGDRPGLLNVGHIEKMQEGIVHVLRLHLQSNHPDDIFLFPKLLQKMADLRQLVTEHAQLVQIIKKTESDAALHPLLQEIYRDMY
Assay type: cell-based
Source text: A cellular assay is used to identify activators of the peroxisome proliferator-activated receptor alpha (PPAR-alpha).
Since mammalian cells contain different endogenous nuclear receptors which can complicate unambiguous interpretation of the results, an established chimera system is used, in which the ligand binding domain of the human PPARα-receptor is fused to the DNA binding domain of the yeast transcription factors GAL4. The GAL4-PPARα chimera thus formed is co-transfected and expressed stably in CHO cells with a reporter construct.
The GAL4-PPARα expression construct contains the ligand binding domain of PPARα (amino acids 167-468), which is PCR-amplified and cloned into the vector pcDNA3.1. This vector already contains the GAL4 DNA binding domain (amino acids 1-147) of the vector pFC2-dbd (Stratagene). The reporter construct, which contains five copies of the GAL4 binding site upstream of a thymidine kinase promoter, leads to the expression of firefly luciferase (Photinus pyralis) after activation and binding of GAL4-PPARα.
The day before the test, CHO (chinese hamster ovary) cells which stably express the above-described GAL4-PPARα chimera and luciferase reporter gene construct are plated out in 96-hole microtiter plates with 1×10^3 cells in medium (Optimem, GIBCO), 2% activated carbon-purified fetal calf serum (Hyclone), 1.35 mM sodium pyruvate (GIBCO), 0.2% sodium bicarbonate (GIBCO), and kept in a cell incubator (air humidity 96%, 5% v/v CO2, 37° C.). On the day of the test, the substances to be tested are taken up in abovementioned medium, but without addition of calf serum, and added to the cells. After a stimulation time of 6 h, the luciferase activity is measured with the aid of a video camera. The relative light units measured give a sigmoid stimulation curve as a function of the substance concentration. The EC50 values are calculated with the aid of the computer program GraphPad PRISM (Version 3.02).

Compound	EC50 [nM]
Cc1ccc(-c2cc(C(F)(F)F)c(C(=O)O)c(Oc3ccccc3Cl)n2)cc1F [Example 11, 2-(2-Chlorophenoxy)-6-(3-fluoro-4-methylphenyl)-4-(trifluoromethyl)nicotinic acid]	14
O=C(O)c1cc(F)c(-c2ccc(C(F)(F)F)cc2)nc1Oc1ccccc1Cl [Example 38, 2-(2-Chlorophenoxy)-5-fluoro-6-(4-trifluoromethylphenyl)nicotinic acid]	360
Cc1cc(-c2ccc(C(=O)O)c(Oc3ccccc3Cl)n2)ccc1F [Example 4, 2-(2-Chlorophenoxy)-6-(4-fluoro-3-methylphenyl)nicotinic acid]	157
N#Cc1ccc(Cl)c(Oc2nc(-c3cc(F)cc(F)c3)ccc2C(=O)O)c1 [Example 17, 2-(2-Chloro-5-cyanophenoxy)-6-(3,5-difluorophenyl)nicotinic acid]	69
Cc1ccc(-c2nc(Oc3ccccc3Cl)c(C(=O)O)cc2F)cc1F [Example 36, 2-(2-Chlorophenoxy)-5-fluoro-6-(3-fluoro-4-methylphenyl)nicotinic acid]	34
O=C(O)c1ccc(-c2ccc(Cl)nc2)nc1Oc1ccccc1Cl [Example 16, 6′-Chloro-6-(2-chlorophenoxy)-2,3′-bipyridine-5-carboxylic acid]	870
Cc1ccc(-c2ccc(C(=O)O)c(Oc3ccccc3Cl)n2)cc1F [Example 5, 2-(2-Chlorophenoxy)-6-(3-fluoro-4-methylphenyl)nicotinic acid]	33
O=C(O)c1ccc(-c2cccc(F)c2F)nc1Oc1ccccc1OC(F)(F)F [Example 26, 2-(2-Trifluoromethoxyphenoxy)-6-(2,3-difluorophenyl)nicotinic acid]	76
COc1cccc(-c2cc(C(F)(F)F)c(C(=O)O)c(Oc3ccccc3Cl)n2)c1F [Example 42, 2-(2-Chlorophenoxy)-6-(2-fluoro-3-methoxyphenyl)-4-trifluoromethylnicotinic acid]	541
